Reference: patent publication US12612409B2, “Pyrrolopyrimidines as CFTR potentiators” (Cystic Fibrosis Foundation, priority 2016, dated 2026)

How the values were obtained:
[1] = biological target: T1, recombinant F508del V470 CFTR in Fischer rat thyroid (FRT) cells (Homo sapiens, UniProt P13569, DEL508-508); assay: FRT ion flux assay of F508del CFTR potentiation; assay type: cell-based; settings: FRT cells expressing F508del V470 CFTR, forskolin 20 uM, 27° C. pre-incubation
T1 construct: expressed in transfected cells
Outline: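 Potentiation read as YFP quench ~21 s after iodide buffer addition, as second/initial fluorescence ratio normalised between DMSO (0%) and reference potentiator (100%).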

[2] = biological target: T2, CFTR in F508del/F508del primary CF hBE cells (Homo sapiens, UniProt P13569, DEL508-508); assay: Ussing chamber electrophysiology assay of CFTR potentiation in F508del/F508del CF bronchial epithelial cells (27° C.); assay type: cell-based
T2 construct: Primary cystic fibrosis human bronchial epithelial (CF hBE) cells were expanded and cultured; endogenous in cells; host or cells: primary CF human bronchial epithelial cells, genotype F508del/F508del
Excerpt: • SHELXTL, Version 5.1, Bruker AXS, 1997. • PLATON, A. L. Spek, J. Appl. Cryst. 2003, 36, 7-13. • MERCURY, C. F. Macrae, P. R. Edington, P. McCabe, E. Pidcock, G. P. Shields, R. Taylor, M. Towler and J. van de Streek, J. Appl. Cryst. 39, 453-457, 2006. • OLEX2, Dolomanov, O. V.; Bourhis, L. J.; Gildea, R. J.; Howard, J. A. K.; Puschmann, H., (2009). J. Appl. Cryst., 42, 339-341. • R. W. W. Hooft et al. J. Appl. Cryst. (2008). 41. 96-103. • H. D. Flack, Acta Cryst. 1983, A39, 867-881. Using Chamber Electrophysiology Assay of CFTR Potentiation in CF Bronchial Epithelial Cells
Primary cystic fibrosis human bronchial epithelial (CF hBE) cells were expanded and cultured according to published methods (Neuberger et al., Ch. 4 of Cystic Fibrosis, Methods in Molecular Biology vol. 741, pp. 39-54 (2011)). Well-differentiated cells (>30 days at air/liquid interface) on Snapwell filters (Corning Costar, cat. no. 3801) were mounted in Ussing chambers (Physiologic Instruments, Inc., San Diego, CA). […] HEPES buffered physiological saline (composition (in mM): 137 NaCl, 4 KCl, 1 MgCl2, 1.8 CaCl2), 10 HEPES Na) was used in both apical and basolateral chambers. Chambers were bubbled with air to promote mixing and the voltage was clamped to zero. Amiloride (30 uM), forskolin (10 uM), test compound (4 increasing concentrations), and CFTRinh-172 (20 uM) were added sequentially with 20-25 minutes between additions. Short-circuit currents were acquired and analyzed using LabScribe2. Test compound responses were scaled relative to responses for DMSO (0%) and the maximal response of a positive control potentiator (100%).

T2 sequence (P13569 with tags, fused parts or gaps DEL508-508): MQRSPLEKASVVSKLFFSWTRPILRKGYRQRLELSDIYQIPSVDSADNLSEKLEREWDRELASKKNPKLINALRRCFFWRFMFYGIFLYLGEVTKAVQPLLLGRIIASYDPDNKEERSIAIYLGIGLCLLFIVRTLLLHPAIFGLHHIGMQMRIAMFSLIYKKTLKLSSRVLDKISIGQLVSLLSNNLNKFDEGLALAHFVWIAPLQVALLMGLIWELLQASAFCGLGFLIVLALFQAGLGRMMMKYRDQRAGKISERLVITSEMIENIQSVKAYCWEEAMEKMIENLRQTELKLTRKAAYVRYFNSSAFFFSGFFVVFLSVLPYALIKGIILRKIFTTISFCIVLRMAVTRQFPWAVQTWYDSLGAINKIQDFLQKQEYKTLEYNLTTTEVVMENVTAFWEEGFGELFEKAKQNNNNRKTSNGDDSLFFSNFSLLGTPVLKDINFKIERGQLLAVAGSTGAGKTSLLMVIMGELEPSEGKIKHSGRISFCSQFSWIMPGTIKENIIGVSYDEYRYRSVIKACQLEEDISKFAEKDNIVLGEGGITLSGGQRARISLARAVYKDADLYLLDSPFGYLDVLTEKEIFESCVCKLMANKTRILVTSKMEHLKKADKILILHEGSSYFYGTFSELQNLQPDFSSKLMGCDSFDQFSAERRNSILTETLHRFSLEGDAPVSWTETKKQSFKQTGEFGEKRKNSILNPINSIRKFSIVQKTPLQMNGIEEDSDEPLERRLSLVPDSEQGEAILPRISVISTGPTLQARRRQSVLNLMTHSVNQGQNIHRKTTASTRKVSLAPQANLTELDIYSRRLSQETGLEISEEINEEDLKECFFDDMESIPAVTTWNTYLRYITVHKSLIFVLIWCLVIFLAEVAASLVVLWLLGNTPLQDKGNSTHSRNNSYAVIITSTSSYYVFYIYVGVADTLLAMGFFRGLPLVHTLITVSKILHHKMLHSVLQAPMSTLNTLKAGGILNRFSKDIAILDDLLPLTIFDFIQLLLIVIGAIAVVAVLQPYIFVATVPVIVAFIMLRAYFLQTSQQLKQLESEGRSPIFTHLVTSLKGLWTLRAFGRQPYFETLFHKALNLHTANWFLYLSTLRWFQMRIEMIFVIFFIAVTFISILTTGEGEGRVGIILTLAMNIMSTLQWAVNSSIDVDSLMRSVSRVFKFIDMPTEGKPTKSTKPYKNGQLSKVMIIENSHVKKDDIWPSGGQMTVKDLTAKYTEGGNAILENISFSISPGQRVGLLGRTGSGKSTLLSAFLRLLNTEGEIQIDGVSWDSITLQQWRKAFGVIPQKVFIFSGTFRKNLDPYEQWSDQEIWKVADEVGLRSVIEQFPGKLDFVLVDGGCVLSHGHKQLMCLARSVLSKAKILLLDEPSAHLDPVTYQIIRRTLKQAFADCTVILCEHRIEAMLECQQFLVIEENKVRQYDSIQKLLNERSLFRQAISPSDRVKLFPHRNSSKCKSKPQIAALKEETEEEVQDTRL
T1 sequence (P13569 with tags, fused parts or gaps DEL508-508): as above

| Structure (SMILES) | EC50 [1] [nM] | EC50 [2] [nM] |
| --- | --- | --- |
| CCC(c1cn(-c2cccc(F)c2F)nn1)n1c(C#N)c(-c2cnc(C(F)(F)F)nc2)c2c(N)ncnc21 (single isomer, unassigned) [Example 18, 4-amino-7-{1-[1-(2,3-difluorophenyl)-1H-1,2,3-triazol-4-yl]propyl}-5-[2-(trifluoromethyl)pyrimidin-5-yl]-7H-pyrrolo[2,3-d] pyrimidine-6-carbonitrile] | 10.8 | 12.5 |
| CCC(c1cn(-c2cccc(F)c2F)nn1)n1c(C#N)c(-c2cnc(C(F)(F)F)nc2)c2c(N)ncnc21 (single isomer, unassigned) [Example 19, 4-amino-7-{1-[1-(2,3-difluorophenyl)-1H-1,2,3-triazol-4-yl]propyl}-5-[2-(trifluoromethyl)pyrimidin-5-yl]-7H-pyrrolo[2,3-d] pyrimidine-6-carbonitrile] | 69.6 | 34.7 |
| CCC(c1cnn(-c2ccc(F)cc2F)c1)n1c(C#N)c(-c2cnc(C(F)(F)F)nc2)c2c(N)ncnc21 (single isomer, unassigned) [Example 20, 4-Amino-7-{1-[1-(2,4-difluorophenyl)-1H-pyrazol-4-yl]propyl}-5-[2-(trifluoromethyl)pyrimidin-5-yl]-7H-pyrrolo[2,3-d]pyrimidine-6-carbonitrile] | 14.1 | 5.48 |
| CCC(c1cnn(-c2ccc(F)cc2F)c1)n1c(C#N)c(-c2cnc(C(F)(F)F)nc2)c2c(N)ncnc21 (single isomer, unassigned) [Example 21, 4-Amino-7-{1-[1-(2,4-difluorophenyl)-1H-pyrazol-4-yl]propyl}-5-[2-(trifluoromethyl)pyrimidin-5-yl]-7H-pyrrolo[2,3-d]pyrimidine-6-carbonitrile] | 0.87 | 0.45 |
| CCC(c1cn(-c2ccccc2F)nn1)n1c(C#N)c(-c2cnc(C(F)(F)F)nc2)c2c(N)ncnc21 (single isomer, unassigned) [Example 22, 4-Amino-7-{1-[1-(2-fluorophenyl)-1H-1,2,3-triazol-4-yl]propyl}-5-[2-(trifluoromethyl)pyrimidin-5-yl]-7H-pyrrolo[2,3-d]pyrimidine-6-carbonitrile] | 4.05 | 6.84 |
| CCC(c1cn(-c2ccccc2F)nn1)n1c(C#N)c(-c2cnc(C(F)(F)F)nc2)c2c(N)ncnc21 (single isomer, unassigned) [Example 23, 4-Amino-7-{1-[1-(2-fluorophenyl)-1H-1,2,3-triazol-4-yl]propyl}-5-[2-(trifluoromethyl)pyrimidin-5-yl]-7H-pyrrolo[2,3-d]pyrimidine-6-carbonitrile] | 41.8 | 32.5 |
| CCC(c1cn(-c2ccccc2F)nn1)n1c(C#N)c(-c2ccc(OC(F)F)nc2)c2c(N)ncnc21 (single isomer, unassigned) [Example 24, 4-Amino-5-[6-(difluoromethoxy)pyridin-3-yl]-7-{1-[1-(2-fluorophenyl)-1H-1,2,3-triazol-4-yl]propyl}-7H-pyrrolo[2,3-d]pyrimidine-6-carbonitrile] | 21.5 | 30 |
| CC(c1cn(-c2ccccc2F)nn1)n1cc(C2CC2)c2c(N)ncnc21 (single isomer, unassigned) [Example 108, 5-Cyclopropyl-7-{1-[1-(2-fluorophenyl)-1H-1,2,3-triazol-4-yl]ethyl}-7H-pyrrolo[2,3-d]pyrimidin-4-amine] | 1200 | 706 |
| CC(c1cn(-c2ccccc2F)nn1)n1cc(C2CC2)c2c(N)ncnc21 (single isomer, unassigned) [Example 109, 5-Cyclopropyl-7-{1-[1-(2-fluorophenyl)-1H-1,2,3-triazol-4-yl]ethyl}-7H-pyrrolo[2,3-d]pyrimidin-4-amine] | 36.5 | 68.6 |
| CC(c1cn(-c2ccccc2F)nn1)n1cc(C2CCC2)c2c(N)ncnc21 (single isomer, unassigned) [Example 110, 5-Cyclobutyl-7-{1-[1-(2-fluorophenyl)-1H-1,2,3-triazol-4-yl]ethyl}-7H-pyrrolo[2,3-d]pyrimidin-4-amine] | 2.65 | 6.21 |
| CC(c1cn(-c2ccccc2F)nn1)n1cc(-c2ccc(Cl)cc2)c2c(N)ncnc21 (single isomer, unassigned) [Example 111] | 533 | 136 |
| CC(c1cn(-c2ccccc2F)nn1)n1cc(-c2ccc(Cl)cc2)c2c(N)ncnc21 (single isomer, unassigned) [Example 112] | 68.6 | 17.5 |
| COc1ncccc1-c1cn(C(C)c2cn(-c3ccccc3F)nn2)c2ncnc(N)c12 (single isomer, unassigned) [Example 113, 7-{1-[1-(2-Fluorophenyl)-1H-1,2,3-triazol-4-yl]ethyl}-5-(2-methoxypyridin-3-yl)-7H-pyrrolo[2,3-d]pyrimidin-4-amine] | 826 | 818 |
| CCC(c1cn(-c2cc(F)ccc2F)nn1)n1cc(-c2cnc(C(F)(F)F)nc2)c2c(N)ncnc21 (single isomer, unassigned) [Example 185, 7-{1-[1-(2,5-difluorophenyl)-1H-1,2,3-triazol-4-yl]propyl}-5-[2-(trifluoromethyl)pyrimidin-5-yl]-7H-pyrrolo[2,3-d]pyrimidin-4-amine] | 34.7 | 14.4 |
| CCC(c1cn(-c2cc(F)ccc2F)nn1)n1cc(-c2cnc(C(F)(F)F)nc2)c2c(N)ncnc21 (single isomer, unassigned) [Example 186, 7-{1-[1-(2,5-difluorophenyl)-1H-1,2,3-triazol-4-yl]propyl}-5-[2-(trifluoromethyl)pyrimidin-5-yl]-7H-pyrrolo[2,3-d]pyrimidin-4-amine] | 631 | 297 |
| CCC(c1cn(-c2cccc(F)c2F)nn1)n1cc(-c2cnc(C(F)(F)F)nc2)c2c(N)ncnc21 (single isomer, unassigned) [Example 187, 7-{1-[1-(2,3-Difluorophenyl)-1H-1,2,3-triazol-4-yl]propyl}-5-[2-(trifluoromethyl)pyrimidin-5-yl]-7H-pyrrolo[2,3-d]pyrimidin-4-amine] | 13.2 | 13 |
| CCC(c1cn(-c2cccc(F)c2F)nn1)n1cc(-c2cnc(C(F)(F)F)nc2)c2c(N)ncnc21 (single isomer, unassigned) [Example 188, 7-{1-[1-(2,3-Difluorophenyl)-1H-1,2,3-triazol-4-yl]propyl}-5-[2-(trifluoromethyl)pyrimidin-5-yl]-7H-pyrrolo[2,3-d]pyrimidin-4-amine] | 551 | 243 |
| CCC(c1nnn(-c2ccc(F)cc2F)c1C)n1cc(-c2cnc(C(F)(F)F)nc2)c2c(N)ncnc21 (single isomer, unassigned) [Example 189] | 6.72 | 10.2 |
| COc1ncc(-c2cn(C(C)c3cc(-c4ccccc4F)no3)c3ncnc(N)c23)cn1 (single isomer, unassigned; (+)) [Example 184, (+) 7-{1-[3-(2-fluorophenyl)-1,2-oxazol-5-yl]ethyl}-5-(2-methoxypyrimidin-5-yl)-7H-pyrrolo[2,3-d]pyrimidin-4-amine] | 49.7 | 32.6 |
| CCC(c1cn(-c2ccccc2F)nn1)n1cc(-c2cncnc2OC)c2c(N)nc(C)nc21 (single isomer, unassigned; (+)) [Example 303, (+) 7-{1-[1-(2-Fluorophenyl)-1H-1,2,3-triazol-4-yl]propyl}-5-(4-methoxypyrimidin-5-yl)-2-methyl-7H-pyrrolo[2,3-d]pyrimidin-4-amine] | 2740 | 1640 |
| COc1ncc(-c2cn(C(C)c3cc(-c4ccccc4F)no3)c3ncnc(N)c23)cn1 (single isomer, unassigned; (-)) [Example 183, (−) 7-{1-[3-(2-fluorophenyl)-1,2-oxazol-5-yl]ethyl}-5-(2-methoxypyrimidin-5-yl)-7H-pyrrolo[2,3-d]pyrimidin-4-amine] | 509 | 305 |
| CC(c1cn(-c2ccccc2F)nn1)n1cc(-c2ccc(C#N)c(F)c2)c2c(N)ncnc21 (single isomer, unassigned; enantiomer 1) [Example 115, 4-(4-Amino-7-{1-[1-(2-fluorophenyl)-1H-1,2,3-triazol-4-yl]ethyl}-7H-pyrrolo[2,3-d]pyrimidin-5-yl)-2-fluorobenzonitrile, enantiomer 1] | 566 | 614 |
